Experimental findings from patent US11471502B2, “Neuroprotective peptide” (UNIVERSITY COLLEGE CARDIFF C[…], priority 2017, dated 2022) are described below.

Entries after “also recorded” stand apart in the source; their conditions may differ.

Assay [1] has as its system ERK-dependent nuclear signalling (histone H3) and cytoplasmic signalling (ribosomal protein S6). The assay can be described thus: Ex vivo acute slices, glutamate stimulation, immunofluorescence for phospho-acetyl histone H3 and phospho-S6. The following applies: 50 μM peptide, glutamate 100 μM. In kind it is cell-based, mouse. The protocol:
a) RB5 peptide selectively promoted activation of ERK2. Acute striatal slices either pre-treated with Scramble (SCR) or RB5 peptide (50 μM) and then stimulated 10 minutes with glutamate (GLU) (100 μM) or vehicle were analysed in Western blot (left panel) and probed with anti phospho ERK antibodies (p44^ERK1 and p42^ERK2) and anti ERK1/2 antibody. GAPDH was used as loading control. […] No changes were detected in the total ERK1 and ERK2 levels. GAPDH was used as loading control. […] Mice injected with a single dose of CPP-SCR or CPP-RB5 peptides (20 mg/kg, i.p.) were rapidly perfused 1 h later and brains were dissected and further analysed for IHC and immunofluorescence. Representative photomicrographs of pERK1/2, pMSK, pAch3, pELK1 and c-Fos expression in the striatum. […] Two-way ANOVA Bonferroni post hoc comparison: one black star, p<0.05, two black stars, p<0.01, one white star, p<0.001. p) Dose response curve of RB5 peptide for ERK activation. 200 μm thick striatal slices were freshly prepared from 2-month old mice and transferred into a perfusion chamber for 1 h at 32° C. Slices were pre-treated with different doses of RB5 or scrambled control. After 1 h, slices for each dose was fixed in PFA 4% for 15 min. 18 μm cryo-sections were processed for immunohistochemistry with anti-phospho p44/p42 MAP kinase. Neuronal quantification was performed with ImageJ software by counting the number of phospho-ERK positive cells in each slice. The level of activation is expressed on the Y-axis as arbitrary units (AU). Doses are reported in a logarithmic scale (Log 10) on the X-axis. The EC50 was calculated using GraphPad Prism software.
Adult mice were anesthetized and decapitated. […]
Slides were placed in a humid chamber and 1 h after blocking in 5% normal goat serum and 0.1% Triton X-100 solution, they were incubated overnight at 4° C. with one of the following primary antibodies: anti-phospho-S6 ribosomal protein (Ser235/236) (1:200 Cell Signalling Technology, Danvers, Mass.), anti-phospho-S6 ribosomal protein (Ser240/244) (1:200 Cell Signalling Technology, Danvers, Mass.), anti-phospho (Ser10)-acetylated (Lys14) histone H3 (1:1000 (Millipore, Billerica, Mass.) or Cleaved Caspase 3 (1:200 Cell Signalling Technology, Danvers, Mass.) and anti-NeuN (1:1000 Millipore, Billerica, Mass.) followed by appropriate secondary antibodies. […] Neuronal quantification is performed with ImageJ software by counting phospho-S6 immunoreactive or pH3 neurons among NeuN positive neurons in each slide (n=10 for each experimental group). […]

A further assay concerns WT mice. The assay can be described thus: Novel Object Recognition Test (NOR). In kind it is in vivo, mouse. Conditions: for memory formation and consolidation in NOR: 24, 48, 72 and 120 h (up to 5 days). The procedure: a) After a 5 min habituation session in the empty arena on day 1, mice were injected with RB5 (20 mg/kg) or vehicle one hour before the training session with two identical objects on day 2 and were then evaluated for their long-term memory on subsequent days. Discrimination Index (D.I.) was tested at different time points 24, 48, 72, and 120 hrs (a) and also up to 168 h (b). […] On subsequent days, while the RB5 group remained high, the Scramble group returned to basal levels. *p<0.01**p<0.0001. […] At 24 h, D.I. of RB5 group was highly significant (Independent sample t-test t26=4.428 P<0.01, SCR (n=14) RB5 (=14)) as well as at 48 h (Independent sample t-test t38=4.210 P<0.0001, SCR (n=18) RB5 (=22)). […] P<0.001, P<0.01.
The test was performed in an open square box (45×45×45 cm), placed in a quiet room with dim light. The objects used were: parallelepipeds in metal and glass vials filled with water. They had no natural significance for mice and they had never been associated with reinforcement before. The protocol required three days and it was performed as follows:
First day: the mice were individually placed in the empty arena for 5 min in order to familiarize with it and to measure their anxiety (thigmotaxis trial). The percentage of thigmotaxis is calculated as the time spent in the peripheral zone out of the total time spent in the arena (300 sec.). Animals showing a thigmotaxis>90% are discarded from the sample because considered biased for anxiety.
Second day: Mice were injected with either […] CPP-SCR or CPP-RB5 1 h prior to training and then they were placed into the arena for 10 minutes, where they were allowed to explore two identical objects (training trial). Therefore, two different measures (in seconds) for Left Object and Right Object were obtained. […] Then, percentages of exploration for each object were calculated as: the time spent exploring LO or RO, out of the total time of exploration (RO+LO). According to these percentages, experimenter decided where to place the novel object for the test trial.
Third day: one of the two identical objects (Parallelepiped) was changed with a new object (Vial) and the mice were allowed to explore them for 10 minutes (test trial).
Times of exploration for the familiar object (FO) and for the novel object (NO) were separately recorded, with the same procedure as for the training trial. A cut-off of 6 seconds was also considered. In order to attest recognition memory, a discrimination index (D.I.) was calculated as (total time of exploration of NO−total time of exploration of FO)/total time of exploration of (FO+NO). D.I. index is comprised between −1 and +1. A D.I. of 1 would mean perfect memory retention for the […]. Conversely, the more time the animal spends exploring FO the lower will be the D.I. value, meaning poor memory retention for FO. SMART software (Panlab, Barcelona, Spain) was used to run the experiment.

On to “GRKKRRQRRRPPQGGGGGEPRRTEGVGPGVPGEVEMVKGQPFDV (listed as Homo sapiens) [CPP-RB5]”, for which, in assay [1], the “phospho (Ser10)-acetyl(Lys14)-histone-H3, nuclear ERK signalling” value is recorded as “massive intra-nuclear MAPKs substrate activation” and the “phospho-S6 ribosomal protein, cytosolic/cytoplasmic signalling” value was “no effect”. The “memory formation and consolidation in NOR” value in the assay on WT mice was “greater performances in remembering the object”.
Take `CSCC[C@H](NC(=O)[C@H](CCC(=O)O)NC(=O)[C@@H](NC(=O)[C@H](CCC(=O)O)NC(=O)CNC(=O)[C@@H]1CCCN1C(=O)[C@@H](NC(=O)CNC(=O)[C@@H]1CCCN1C(=O)CNC(=O)[C@@H](NC(=O)CNC(=O)[C@H](CCC(=O)O)NC(=O)[C@@H](NC(=O)[C@H](CCCNC(=N)N)NC(=O)[C@H](CCCNC(=N)N)NC(=O)[C@@H]1CCCN1C(=O)[C@H](CCC(=O)O)NC(=O)CNC(=O)CNC(=O)CNC(=O)CNC(=O)CNC(=O)[C@H](CCC(N)=O)NC(=O)[C@@H]1CCCN1C(=O)[C@@H]1CCCN1C(=O)[C@H](CCCNC(=N)N)NC(=O)[C@H](CCCNC(=N)N)NC(=O)[C@H](CCCNC(=N)N)NC(=O)[C@H](CCC(N)=O)NC(=O)[C@H](CCCNC(=N)N)NC(=O)[C@H](CCCNC(=N)N)NC(=O)[C@H](CCCCN)NC(=O)[C@H](CCCCN)NC(=O)[C@H](CCCNC(=N)N)NC(=O)CNC(C)=O)[C@@H](C)O)C(C)C)C(C)C)C(C)C)C(=O)N[C@H](C(=O)N[C@@H](CCCCN)C(=O)NCC(=O)N[C@@H](CCC(N)=O)C(=O)N1CCC[C@H]1C(=O)N[C@@H](Cc1ccccc1)C(=O)N[C@@H](CC(=O)O)C(=O)N[C@@H](C(=O)O)C(C)C)C(C)C` [RB5]: the “phospho (Ser10)-acetyl(Lys14)-histone-H3, nuclear ERK signalling” value in assay [1] is “promotes”. Also, in assay [1], the “phospho-S6 ribosomal protein, cytosolic/cytoplasmic signalling” value is reported as “not activated”. Moreover, in the assay with WT mice, the “memory formation and consolidation in NOR” value was “significantly enhanced”. Moreover, the “Discrimination Index (D.I.)” value in the assay with WT mice (24 h, 20 mg/kg 1 h before training) is reported as “significantly higher than the Scramble group”; in the assay with WT mice (48 h, vs chance level), “greatly above it”; in the assay with WT mice (72 h) it was “remained highly significant”; in the assay on WT mice (120 h), “still highly significant”. In addition, the “Discrimination Index (D.I.) / performance” value in the assay with WT mice (168 h) is given as “dropped to basal levels indistinguishable from SCR group; also recorded: went down to basal levels indistinguishable from SCR group”.
